In brackets after ≈: the same amount, converted by molar mass. Where a SMILES comes first, the peptide text is derived from it. [ ]: non-standard residue; d: D form. Ac6c = NC1(C(=O)O)CCCCC1; Ac5c = NC1(C(=O)O)CCCC1

Assay type in all cases: functional
Assay [1] relates to Staphylococcus aureus. In words: Antimicrobial activity against Staphylococcus aureus NBRC 13276 after 16 hrs by microbroth dilution method. The settings on record: NBRC 13276, 16 h.
Assay [2] relates to Pseudomonas aeruginosa. In words: Antimicrobial activity against Pseudomonas aeruginosa NBRC 13275 after 16 hrs by microbroth dilution method. Particulars: NBRC 13275, 16 h. For orientation: Broth dilution looks for growth in wells or tubes with falling amounts of substance.
For assay [3], the system named is Escherichia coli. In words: Antimicrobial activity against Escherichia coli NBRC 3972 after 16 hrs by microbroth dilution method. Particulars: NBRC 3972, 16 h.

The MIC is the lowest concentration that inhibits growth of the organism. In the case of `CC(=O)N[C@H](CCCCN)C(=O)N[C@H](CCCCN)C(=O)NC(C)(C)C(=O)N[C@H](CCCCN)C(=O)N[C@H](CCCCN)C(=O)NC(C)(C)C(=O)N[C@H](CCCCN)C(=O)N[C@H](CCCCN)C(=O)NC(C)(C)C(N)=O`, the minimum inhibitory concentration (MIC) in assay [1], in assay [2] and in assay [3] was greater than 800 µM throughout.

With `CC(=O)N[C@@H](CCCCN)C(=O)N[C@H](CCCCN)C(=O)NC(C)(C)C(=O)N[C@@H](CCCCN)C(=O)N[C@H](CCCCN)C(=O)NC(C)(C)C(=O)N[C@@H](CCCCN)C(=O)N[C@H](CCCCN)C(=O)NC(C)(C)C(N)=O`, the MIC in assay [1], in assay [2] and in assay [3] was greater than 800 µM in each case.

`CC(=O)N[C@@H](CCCCN)C(=O)N[C@@H](CCCCN)C(=O)NC(C)(C)C(=O)N[C@@H](CCCCN)C(=O)N[C@@H](CCCCN)C(=O)NC(C)(C)C(=O)N[C@@H](CCCCN)C(=O)N[C@@H](CCCCN)C(=O)NC(C)(C)C(N)=O`: the MIC is greater than 800 µM in assay [1], greater than 800 µM in assay [2] and 400 µM (≈ 433 µg/mL) in assay [3].

Consider `CC(=O)N[C@@H](CCCCN)C(=O)N[C@@H](CCCCN)C(=O)NC1(C(=O)N[C@@H](CCCCN)C(=O)N[C@@H](CCCCN)C(=O)NC2(C(=O)N[C@@H](CCCCN)C(=O)N[C@@H](CCCCN)C(=O)NC3(C(N)=O)CCCC3)CCCC2)CCCC1` (Ac-KK[Ac5c]KK[Ac5c]KK[Ac5c]-NH2), for which the figures for the minimal inhibitory concentration (MIC) in assay [1], in assay [2] and in assay [3] were greater than 800 µM, 400 µM (≈ 465 µg/mL) and 50 µM (≈ 58.1 µg/mL), respectively.

As for `CC(=O)N[C@@H](CCCCN)C(=O)N[C@@H](CCCCN)C(=O)NC1(C(=O)N[C@@H](CCCCN)C(=O)N[C@@H](CCCCN)C(=O)NC2(C(=O)N[C@@H](CCCCN)C(=O)N[C@@H](CCCCN)C(=O)NC3(C(N)=O)CCCCC3)CCCCC2)CCCCC1` (Ac-KK[Ac6c]KK[Ac6c]KK[Ac6c]-NH2), the values for the MIC in assay [1], in assay [2] and in assay [3] were greater than 800 µM, 50 µM (≈ 60.2 µg/mL) and 25 µM (≈ 30.1 µg/mL), respectively.

With `CC(=O)NC(CCCCN)C(=O)NC(CCCCN)C(=O)NC(C)(C)C(=O)NC(CCCCN)C(=O)NC(CCCCN)C(=O)NC(C)(C)C(=O)NC(CCCCN)C(=O)NC(CCCCN)C(=O)NC(C)(C)C(N)=O` (racemic), the MIC in assay [1], in assay [2] and in assay [3] was greater than 800 µM in each case.

As for Ac-GIGKFLHSAKKFGKAFVGEIMNS-NH2, the MIC in assay [1] turned out to be 200 µM; in assay [2], 12.5 µM; in assay [3] it was 50 µM.

Regarding Ac-KKAKKAKKA-NH2, the MIC in assay [1], in assay [2] and in assay [3] was greater than 800 µM throughout.

Consider Ac-KKGKKGKKG-NH2, for which the MIC in assay [1], in assay [2] and in assay [3] was greater than 800 µM in each case.

The values above are taken from ChEMBL document CHEMBL4043155, “Development of helix-stabilized antimicrobial peptides composed of lysine and hydrophobic α,α-disubstituted α-amino acid residues” (2017).
